# Reference: EP0419081A2, “Method for protein binding enzyme complementation assays” (MICROGENICS CORPORATION, priority 1989, dated 1991)
# Like-named read-outs stand apart in the source and are kept apart here.
# Tests used:
# [1] = target: T1, FBP (Bos taurus, UniProt P02702); assay: Folate dose response; format: biochemical; conditions: for 5′- 9′: rate OD₄₂₀ 5 to 9 min, FBP 1:1000, ED14-folate #34
# T1 construct: purchased Scripps
# Procedure: The following buffer systems and reagents were used and will be abbreviated as stated below: • 1. Sample buffer; 100 mM sodium phosphate, 20 mM sodium azide and 0.2% BSA. • 2. Assay buffer pH 7.0; 10 mM ethylene glycol tetraacetic acid, 2 mM magnesium acetate, 20 mM sodium azide, 150 mM sodium phosphate, 100 mM potassium phosphate, 0.05% Tween 20, 0.05 mM dithiothreitol, adjusted to pH 7.0. • 3. EA; enzyme acceptor • 4. ED; enzyme donor • 5. FBP Scripps; folate binding protein from Scripps 2.25 mg/ml stock • 6. CPRG; chlorophenol red β-D galactopyranoside • 7. ONPG: 2-nitrophenol β-D galactopyranoside
# A folate dose response was elicited as follows. The following reagents were prepared; EA at a concentration of 3750 nM in Assay buffer p8 7.0, ED14-folate (fraction #34) at a concentration of 26.66 nM in Assay/ONPG buffer pH 7.0, FBP at a dilution of 1:1000 in sample buffer and folic acid standards at 0, 2.5, 5.0, 10.0 and 20.0 ng/ml in sample buffer. […] Rates were calculated by subtracting the OD₄₂₀ at 5 min from the OD₄₂₀ at 9 min.
# [2] = test system: EA23
# Procedure: This example illustrates an immunoassay for thyroxine as analyte using H6-thyroxine conjugate as enzyme-donor, EA23 as enzyme-acceptor, anti-thyroxine antibody and a series of concentrations of thyroxine.
# Reagents for the assay were prepared as follows: L-thyroxine standard: 2.6 mg L-thyroxine (Sigma Chemical, St. Louis, MO) was dissolved in 200 µl absolute ethanol and 800 µl 0.15M NaHCO₃ added and the mixture stored at 25°C. Two fold dilutions of thyroxine were prepared in ethanol: 0.15M NaHCO₃ (1:4). L-thyroxine antibody: Antisera to thyroxine (T4) was purchased from Western Chemical Research Corp., Denver, CO. Several lots were tested for titer and an equilibrium constant determined in a radio-immunoassay with IgM Sorb (Enzyme Center, Malden, MA). […] EA23 acceptor-enzyme: 6.3X10-⁷M in storage buffer. Substrate: o-nitrophenyl-β-D-galactopyranoside (ONPG) was dissolved in 2.5 X Z buffer to a final concentration 10 mg/ml solution.
# The assay was performed in microtiter plates (Dynatech Cat. #001-012-9200 American Scientific Products, Sunnyvale, CA) and read on a Titertak Multiscan microtiter plate reader fitted with a 414 nm filter (Flow Laboratories, Rockville, MO). To each well was added 100 µl of PM2 buffer containing 0.05% Tween 20 (polyoxyethylene sorbitan monolaurate) (Sigma Chemical Co., St. Louis, MO). To each well was added sequentially 2.5 µl H6-thyroxine conjugate, 2.5 µl of anti-thyroxine antibody, 2.5 µl of the thyroxine standards and 40 µl of EA23.
# [3] = test system: analyte specific antiserum; assay: Immunopurity by precipitation of the enzyme donor conjugate with antibody; format: binding; conditions: % of ED conjugate activity which can be removed by analyte specific antiserum
# Procedure: Immunopurity was determined by precipitation of the enzyme donor conjugate with anti-T4 antibody TgG Sorbheads. The ED is incubated with primary antibody at room temperature for 15 min on a rocker shaker. Secondary antibody is added and incubation continued for 15 min. The suspension is centrifuged and an aliquot of the supernatant is saved for the assay. The above cycle is repeated on the remaining supernatant for a total of five cycles. […] The ED concentration during incubation is 20 nM. Assay concentrations are EA 500 nM; ED, 4 nM; and ONPG, 1mg/ml. Immunopurity is expressed as percent of ED activity precipitable by primary antibody.
# [4] = test system: EA; assay: Equilibrium specific activity; format: biochemical; conditions: ED and EA incubated together for 18 hours
# [5] = test system: anti-T4 antibody (T4-pool 393A); assay: Immunochemical testing on the Encore, T4 conjugates; format: biochemical
# Procedure: The immunochemical testing was performed on the Encore. […] The ligand concentrations employed are indicated in the legend to the table. The ED and antibody were preincubated on the rotor for 15 min at 37°C. All antibody concentrations were assayed in duplicate. No correction was made for variations of total protein in the assays.
# [6] = test system: anti-T4 antibody; assay: Affinity constant by ED titration, Scatchard plot, T4 conjugates; format: binding; conditions: ED titration against fixed anti-T4 Ab, no secondary antibody
# Procedure: The Ka was determined as follows: To determine the affinity constant of an antibody for an experimental ED conjugate, an ED titration against a fixed antibody is carried out. Antibody binding to the conjugated ED is monitored by inhibition of formation of active enzyme as indicated by a decrease in chromogenic substrate turnover. The resulting data is plotted in a Scatchard format (Bound/Free vs. [Bound]). The slope of the line generated is equal to ∼KA in L/mole.
# T1 sequence (P02702 20-234): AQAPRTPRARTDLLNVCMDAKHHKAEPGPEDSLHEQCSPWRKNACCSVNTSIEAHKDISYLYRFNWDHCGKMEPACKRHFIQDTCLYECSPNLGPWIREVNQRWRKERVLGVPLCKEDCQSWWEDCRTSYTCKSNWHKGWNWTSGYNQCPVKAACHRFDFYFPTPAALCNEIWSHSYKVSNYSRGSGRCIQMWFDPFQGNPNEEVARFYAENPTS
compound,measurement,setting,value
Nc1nc2ncc(CNc3ccc(C(=O)N[C@@H](CCC(=O)O)C(=O)O)cc3)nc2c(=O)[nH]1 [folic acid],% Mod,[1]; folic acid standard 5.0 ng/ml,13.4%
same,Net,[1]; folic acid standard 5.0 ng/ml,52
same,5′- 9′,[1]; folic acid standard 5.0 ng/ml,388.5
same,% Mod,[1]; folic acid standard 10.0 ng/ml,24.1%
same,Net,[1]; folic acid standard 10.0 ng/ml,107
same,5′- 9′,[1]; folic acid standard 10.0 ng/ml,443.5
same,% Mod,[1]; folic acid standard 20.0 ng/ml,40.0%
same,Net,[1]; folic acid standard 20.0 ng/ml,2255
same,5′- 9′,[1]; folic acid standard 20.0 ng/ml,562
m-maleimide-benzoyl-L-Thyroxine-ED₄ conjugate [ED4T4],OD₄₁₅,"[2]; Well 2: ED₄-T4 2.5 µl only, no EA",0.001
same,OD₄₁₅,"[2]; Well 3: ED₄-T4 2.5 µl, EA 40 µl",0.595
same,OD₄₁₅,"[2]; Well 4: ED₄-T4 2.5 µl, Antibody 2.5 µl, EA 40 µl",0.300
same,OD₄₁₅,"[2]; Well 5: ED₄-T4 2.5 µl, Antibody 2.5 µl, Thyroxine 6.25 µg/µl, EA 40 µl",0.312
same,OD₄₁₅,"[2]; Well 6: ED₄-T4 2.5 µl, Antibody 2.5 µl, Thyroxine 12.5 µg/µl, EA 40 µl",0.320
same,OD₄₁₅,"[2]; Well 7: ED₄-T4 2.5 µl, Antibody 2.5 µl, Thyroxine 25 µg/µl, EA 40 µl",0.364
same,Immuno-Purity,[3],96%
same,Specific Activity (u/mg) (% ED4-T4) Equilibrium,[4],100%
same,Immunochemical Testing %I 1/2Sat,"[5]; T4-pool 393A at 1:12,000, ED titrated until one-half of Ab binding sites saturated, no secondary antibody",34%
same,Immunochemical Testing (0.125 nM Sys [ED]),"[5]; maximum amount of complementation inhibition, ED system concentration 0.125 nM, Ab constant",47%
same,Ka (L/mole) x10-9,[6],1.97 L/mole x10-9
